From ChEMBL document CHEMBL4334500, “Macrocyclic Diterpenoids from Euphorbia helioscopia and Their Potential Anti-inflammatory Activity” (J Nat Prod, 2019) come the findings set out here.

A word on the inhibition: it is the change of the read-out against control, counted positive when it falls. What is called IC50 is the point on the concentration scale where inhibition reaches its midpoint.

Data set [1] has as its system RAW264.7. Briefly: Cytotoxicity against mouse RAW264.7 cells at 6.25 to 100 uM measured after 24 hrs by MTT assay. Format: cell-based. The following applies: raw264.7, 24 h. Background: Tetrazolium assays rely on reduction of a dye to a coloured formazan, in cell work by metabolically active cells.
The subject of data set [2] is RAW264.7. Briefly: Anti-inflammatory activity in mouse RAW264.7 cells assessed as inhibition of LPS-stimulated NO production preincubated with LPS and measured after 20 hrs by Griess reagent-based assay. Format: functional, cell-based. For orientation: The Griess reaction detects nitrite, a stable product of nitric oxide.
For data set [3], the system named is RAW264.7. Briefly: Anti-inflammatory activity in mouse RAW264.7 cells assessed as inhibition of LPS-stimulated NO production at 15 uM preincubated with LPS and measured after 20 hrs by Griess reagent-based assay relative to control. Format: functional.
Data set [4] relates to RAW264.7. Briefly: Antiinflammatory activity in mouse RAW264.7 cells assessed as decrease in LPS-induced IL-6 secretion after 24 hrs by ELISA. Format: functional, cell-based.
Data set [5] has as its system RAW264.7. Briefly: Antiinflammatory activity in mouse RAW264.7 cells assessed as decrease in LPS-induced TNF-alpha secretion after 24 hrs by ELISA. Format: functional, cell-based.
In data set [6] the test system is RAW264.7. Briefly: Antiinflammatory activity in mouse RAW264.7 cells assessed as decrease in LPS-induced IL-6 mRNA expression after 6 to 24 hrs by FQ-PCR analysis. Format: functional, cell-based.
Data set [7] concerns RAW264.7. Briefly: Antiinflammatory activity in mouse RAW264.7 cells assessed as effect on LPS-induced TNF-alpha mRNA expression after 12 to 24 hrs by FQ-PCR analysis. Format: functional, cell-based.
Data set [8] addresses Transcription factor p65 (Mus musculus) (UniProt Q04207). Briefly: Inhibition of LPS-induced NF-kappaB p65 translocation in mouse RAW264.7 cells at 3 to 12 uM incubated for 2 hrs by DAPI staining based immunofluorescence assay. Format: cell-based.

Each structure is given as a SMILES string. The source made the active and inactive calls. No cut-off for these calls is given here.

Chain of Transcription factor p65 (Mus musculus) (Q04207 whole entry): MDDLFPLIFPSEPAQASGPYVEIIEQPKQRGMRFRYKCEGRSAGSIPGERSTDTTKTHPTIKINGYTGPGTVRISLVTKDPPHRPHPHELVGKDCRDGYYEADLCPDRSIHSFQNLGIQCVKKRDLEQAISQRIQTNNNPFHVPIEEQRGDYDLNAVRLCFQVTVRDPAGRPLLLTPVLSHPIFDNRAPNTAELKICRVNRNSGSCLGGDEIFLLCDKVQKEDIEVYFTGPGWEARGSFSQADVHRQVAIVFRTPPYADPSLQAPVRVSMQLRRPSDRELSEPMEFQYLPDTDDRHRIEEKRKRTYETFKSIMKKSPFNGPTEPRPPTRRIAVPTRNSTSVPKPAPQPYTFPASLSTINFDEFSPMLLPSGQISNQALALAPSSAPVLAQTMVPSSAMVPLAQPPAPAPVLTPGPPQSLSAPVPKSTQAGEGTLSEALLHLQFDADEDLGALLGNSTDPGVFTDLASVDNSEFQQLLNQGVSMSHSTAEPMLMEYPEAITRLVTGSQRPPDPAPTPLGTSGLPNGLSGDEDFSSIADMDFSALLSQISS

Regarding `CC(=O)O[C@@H]1[C@@H](C)/C=C/C(C)(C)C(=O)C[C@@H](OC(C)=O)/C(C)=C/[C@H]2[C@@H](OC(=O)c3ccccc3)[C@H](C)C[C@]12OC(C)=O`, the Activity entry in data set [1] was “Non-Toxic”. Also, in data set [2], the inhibition result is “inactive”.
On the same counts, the results for `CC(=O)O[C@]12C[C@H](C)[C@H](OC(=O)c3ccccc3)[C@@H]1/C=C(\C)[C@H](OC(=O)c1ccccc1)CC(=O)C(C)(C)/C=C/[C@@H](C)C2=O` are “Non-Toxic” and “inactive”.
Consider `CC(=O)O[C@]12C[C@@H](C)[C@H](OC(=O)c3ccccc3)[C@@H]1/C=C(\C)C(=O)CC(=O)C(C)(C)C/C=C(\C)C2=O`, for which the Activity result in data set [1] was “Non-Toxic”. For the same compound, the inhibition entry in data set [2] is “inactive”.
Take `CC(=O)O[C@@H]1[C@H](C)/C=C/C(C)(C)C(=O)C[C@@H](OC(=O)c2ccccc2)/C(C)=C/[C@H]2[C@@H](OC(=O)c3ccccc3)[C@H](C)C[C@]12OC(C)=O` [EUPHOSCOPIN C]: in data set [1], the Activity result is reported as “Non-Toxic”. In addition, in data set [2], the inhibition result is “inactive”.
Regarding `CC(=O)O[C@@H]1[C@H](C)/C=C/C(C)(C)C(=O)CC/C(C)=C/[C@H]2[C@@H](OC(=O)c3ccccc3)[C@H](C)C[C@]12OC(C)=O`, the Activity result in data set [1] was “Non-Toxic”. Moreover, in data set [2], the inhibition entry is “inactive”.
Turning to `CC(=O)O[C@@H]1[C@@H](C)/C=C/C(C)(C)C(=O)C[C@@H](OC(C)=O)/C(C)=C/[C@H]2[C@@H](OC(=O)c3ccccc3)[C@@H](C)C[C@]12OC(C)=O`, the Activity result in data set [1] is “Non-Toxic”. Also, in data set [2], the inhibition entry was “inactive”.
Regarding `CC(=O)O[C@@H]1[C@@H](C)/C=C/C(C)(C)C(=O)C[C@@H](O)/C(C)=C/[C@H]2[C@@H](OC(=O)c3ccccc3)[C@H](C)C[C@]12OC(C)=O`, in data set [1], the Activity result is “Non-Toxic”. Moreover, the inhibition entry in data set [2] was “inactive”.
For `C[C@@H]1C[C@H]2[C@@H]3CCC4=CC(=O)C=C[C@]4(C)[C@@]3(F)[C@@H](O)C[C@]2(C)[C@@]1(O)C(=O)CO` [DEXAMETHASONE], the inhibition at 15 µM in data set [3] was 34.2%.
For `COc1cc(/C=C/c2ccccc2)c(C(=O)O)c(O)c1CC=C(C)C`, the inhibition at 15 µM in data set [3] came out at 30.2%.
`CC(=O)O[C@]12C[C@@H](C)[C@H](OC(=O)c3ccccc3)[C@@H]1/C=C(\C)[C@H](OC(=O)c1ccccc1)CC(=O)C(C)(C)/C=C/[C@@H](C)C2=O`: the Activity entry in data set [1] is reported as “Non-Toxic”. Besides, in data set [2], the inhibition result was “inactive”.
Regarding `CC(=O)O[C@@H]1[C@@H](C)[C@H](C=C(C)C)C(=O)C[C@@H](OC(C)=O)/C(C)=C/[C@H]2[C@@H](OC(=O)c3ccccc3)[C@H](C)C[C@]12OC(C)=O`, the Activity result is “Non-Toxic” in data set [1], “Dose-dependent effect” in data set [4], “Dose-dependent effect” in data set [5] and “Dose-dependent effect” in data set [6]. For the same compound, the IC50 in data set [2] was determined as 7.4 µM. In addition, in data set [7], the outcome was inactive. For the same compound, in data set [8], the inhibition entry is “Active”.
With `CC(=O)O[C@@H]1[C@H](C)/C=C/C(C)(C)C(=O)C[C@@H](O)/C(C)=C/[C@H]2[C@@H](OC(=O)c3ccccc3)[C@H](C)C[C@]12OC(C)=O`, the Activity entry in data set [1] is listed as “Non-Toxic”. Also, the inhibition entry in data set [2] was “inactive”.
For the compound `CC(=O)O[C@]12C[C@@H](C)[C@H](OC(=O)c3ccccc3)[C@@H]1/C=C(\C)[C@H](O)CC(=O)C(C)(C)C/C=C(\C)C2=O`, in data set [1], the Activity result is “Non-Toxic”. Further, in data set [2], the inhibition result was “inactive”.
